What was measured:
[1] = Solubility study in buffer solutions pH 1.2-7.5 (shake flask, HPLC); assay type: physicochemical; conditions: for solubility at 48 h: hydrochloric acid/sodium chloride buffer pH 1.2, 37 °C, pH 1.2, 37 °C
Protocol: Solubility was investigated in four different buffer systems at two temperatures each.
Preparation of buffer solutions:
pH 1.2: 425.0 mL of 0.2 M hydrochloric acid solution, and 250.0 mL 0.2 M sodium chloride solution diluted to 1000 mL with water;
pH 6.8: 250.0 mL of 0.2 M monobasic potassium phosphate solution, 112.0 mL of 0.1 M sodium hydroxide solution diluted to 1000 mL with water;
pH 7.5: 250.0 mL of 0.2 M monobasic potassium phosphate solution, 112.0 mL of 0.1 M sodium hydroxide solution diluted to 1000 mL with water and adjusted to pH 7.5 with 0.1 M sodium hydroxide solution and.
Flow rate of the mobile phase: 0.5 mL min^−1 and a column temperature of 30 °C. The samples were injected at a volume of 10 µL with detection at wavelength 225 nm.
Preparation of the final test solution: Following stirring, the flask was allowed to deposit the excess amount of substance for 5 min. Thereafter, 1.0 mL of the supernatant was transferred into a 50 mL volumetric flask, dissolved in mobile phase, and adjusted to 50.0 mL with the same solvent. For the study at 25 °C, 5.0 mL of this solution was diluted to 20.0 mL with mobile phase. For the study at 37 °C, 5.0 mL of the solution was diluted to 50.0 mL with mobile phase.
10.0 mL of this solution was dissolved to 100.0 mL with mobile phase.

[2] = Caco-2 monolayer transport (permeability) study; assay type: in vitro ADME, human; conditions: human, Caco-2, pH 7.4, Caco-2, donor concentrations 10–100 μM, KRB pH 7.4; read-out: Permeability coefficient (Papp), apical to basolateral
Protocol: (§1) Cell culture. For the maintenance culture, Caco-2 cells were incubated at 37 °C, 5% CO2, and 90% relative humidity in 75 cm^2 culture flasks with supplemented Dulbecco's Modified Eagle's Medium (DMEM). The cells were passaged once a week using trypsin/ethylenediaminetetraacetic acid (EDTA) solution. Approximately 10^6 cells were seeded per flask. The culture medium was changed three times a week. For the transport studies, the Caco-2 cells were inoculated at a density of 60,000 cells/cm^2 on Transwell filter inserts and placed into 12-well flat-bottom cluster plates. The inserts (apical compartments) were supplied with 0.5 mL and the outer wells (basal compartments) with 1.5 mL of DMEM culture medium. The cells for the present transport study were cultured at 37 °C, 5% CO2 and 90% relative humidity in DMEM culture medium for 18 days until they formed confluent monolayers (31 passages). The culture medium was replaced every 2-3 days. […] Transport studies. […] All tests were carried out in triplicate. […] Testing of integrity of monolayers. Each batch of monolayer Caco-2 cells was inoculated and cultured under the same conditions on Transwell filter inserts in parallel. Qualification of intactness of the Caco-2 monolayer batches prior to the transport studies was carried out in triplicate for each transport condition using the selected transport markers fluorescein, [^3H]-propranolol and rhodamine 123. […] Mobile phase A consisted of 0.1% formic acid in water and mobile phase B of 0.1% formic acid in acetonitrile. […] The samples were kept at 10 °C and injected at a volume of 20 μL. The triple quad mass spectrometer system (Waters) was used in the positive (ESI^+) electrospray mode at 2.63 kV. […] Fluorescein and rhodamine 123 samples (100 μL) were determined by fluorescence reading. The samples were collected in 96 well microtiter plates. The fluorescence intensity was recorded by exciting the sample with light at 485 nm and measuring the emitted fluorescence at 535 nm. The fluorescence emission of a blank sample (Krebs-Ringer bicarbonate buffer (KRB) solution) was used as baseline.

[3] = system: Caco-2 cell monolayers; test: Caco-2 monolayer transport (permeability) study; assay type: in vitro ADME, human; conditions: Caco-2, 10–100 μM
Protocol: as §1

[4] = system: Caco-2 cells; test: Tolerability of enisamium iodide to Caco-2 cells (TEER); assay type: cell-based, human; conditions: up to 100 μM, after 2 h of incubation
Protocol: For this purpose, the cells were incubated with the highest dose supposed for the permeability studies (100 μM). After an incubation period of 120 min at 37 °C the TEER was checked to assess the integrity of the cell monolayers. […] All experiments were performed in triplicate. As a positive control, sodium dodecyl sulfate was used in this experiment.
The TEER was calculated according to TEER= Rc(A)=(Rc+f−Rf)A (Ω·cm^2). where Rc(A) is the electrical resistance of the monolayer with the area A (Ω cm^2); Rc+f is the electrical resistance of the monolayer including the filter (Ω); Rf is the electrical resistance of the filter without cells (Ω); and A is the area of the monolayer (cm^2).

[5] = biological target: P-glycoprotein (P-gp) (Homo sapiens, UniProt P08183)
Chain of P-glycoprotein (P-gp) (P08183 whole entry): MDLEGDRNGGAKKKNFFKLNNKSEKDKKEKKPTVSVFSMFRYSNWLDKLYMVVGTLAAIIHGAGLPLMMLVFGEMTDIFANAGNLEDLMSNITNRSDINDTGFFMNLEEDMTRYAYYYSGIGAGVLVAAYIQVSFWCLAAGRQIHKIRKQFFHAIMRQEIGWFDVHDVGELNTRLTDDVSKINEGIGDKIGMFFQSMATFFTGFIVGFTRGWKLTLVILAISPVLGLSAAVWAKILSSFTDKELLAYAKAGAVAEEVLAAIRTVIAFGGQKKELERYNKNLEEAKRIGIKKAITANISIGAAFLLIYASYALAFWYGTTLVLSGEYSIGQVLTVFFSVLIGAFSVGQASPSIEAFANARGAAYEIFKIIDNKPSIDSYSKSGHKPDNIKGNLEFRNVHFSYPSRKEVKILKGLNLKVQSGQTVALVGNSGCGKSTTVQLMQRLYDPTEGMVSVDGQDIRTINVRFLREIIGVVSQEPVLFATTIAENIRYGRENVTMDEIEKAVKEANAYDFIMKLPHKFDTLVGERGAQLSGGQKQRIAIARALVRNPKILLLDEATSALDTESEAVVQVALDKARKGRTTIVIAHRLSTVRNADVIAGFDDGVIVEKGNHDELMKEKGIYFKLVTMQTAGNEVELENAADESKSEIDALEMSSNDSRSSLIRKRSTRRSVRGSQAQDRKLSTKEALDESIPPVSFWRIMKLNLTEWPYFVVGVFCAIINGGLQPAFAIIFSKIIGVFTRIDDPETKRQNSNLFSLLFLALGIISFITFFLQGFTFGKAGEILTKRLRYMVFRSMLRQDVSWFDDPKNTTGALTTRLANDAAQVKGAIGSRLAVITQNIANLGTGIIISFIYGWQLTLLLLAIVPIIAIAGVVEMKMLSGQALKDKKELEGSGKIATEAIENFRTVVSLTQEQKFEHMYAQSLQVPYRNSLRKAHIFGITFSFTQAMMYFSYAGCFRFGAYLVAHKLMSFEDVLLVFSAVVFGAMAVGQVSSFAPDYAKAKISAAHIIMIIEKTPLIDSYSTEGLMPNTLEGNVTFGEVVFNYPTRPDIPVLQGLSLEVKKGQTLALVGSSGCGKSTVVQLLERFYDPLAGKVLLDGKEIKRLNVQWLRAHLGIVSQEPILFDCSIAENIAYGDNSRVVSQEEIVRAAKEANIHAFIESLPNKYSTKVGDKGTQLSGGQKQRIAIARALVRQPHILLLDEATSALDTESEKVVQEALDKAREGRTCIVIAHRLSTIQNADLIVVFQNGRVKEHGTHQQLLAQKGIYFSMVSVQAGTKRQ
Protocol: Transport studies. Caco-2 monolayers were rinsed twice with KRB to remove the cell culture medium. Fresh KRB (pH 7.4) was filled into the acceptor compartment and the transport solution (test substance in KRB at pH 7.4) into the donor compartment. The cells were equilibrated for 30 min in a CO2 incubator at 37 °C and stayed there between the sample collection points. After pre-incubation, samples were taken from the donor and acceptor compartment, respectively. The concentration of test compound in the donor compartment was defined as initial donor concentration. At 0 min, 30 min, 60 min, 90 min and 120 min 100 µL samples were drawn from the acceptor compartment. The amount of solution removed was replaced by fresh, pre-warmed KRB. At the final pull point, samples were retrieved from the donor compartment, too. All tests were carried out in triplicate. For studies including the P-glycoprotein (P-gp) inhibitor cyclosporin A and the marker compound for P-gp transport inhibitors, [^3H]-digoxin the substances were applied to both the donor and acceptor compartment in the same concentration. […]
[^3H]-propranolol and [^3H]-digoxin were quantified by liquid scintillation counting. […] After an equilibration period of at least 1 h radiation was measured for 2 min per well in a scintillation counter. The recorded counts in a blank sample were subtracted from the value of each test sample.
Data of the permeability study were calculated using MS Excel (Microsoft, Redmond, WA, USA). Apparent permeability coefficient (Papp) was calculated according to the following equation: Papp=ΔQ 1 1/Δt m0 A VD(cm·s^−1) where ΔQ/Δt is the permeability rate (steady state transport rate) obtained from the profile of the transported mass or radioactivity of substrate versus time (µg or dpm·s^−1). Calculated by the linear regression of time and concentration. A is the area of the exposed cell monolayer (cm^2), m0 is the initial mass or radioactivity of test compound in the donor compartment (µg or dpm), and VD is the buffer volume of donor compartment. […]

C[n+]1ccc(C(=O)NCc2ccccc2)cc1.[I-] [enisamium iodide, 4-(benzylcarbamoyl)-1-methylpyridinium iodide]
Solubility classification according to the BCS [1]: highly soluble
Amount that can be dissolved in 250 mL of buffer solution ([1]; 37 °C): at least 31.8 g
solubility at 96 h ([1]; four buffer solutions (pH 1.2, 4.5, 6.8, 7.5), 25 °C, pH 1.2, aqueous buffer, thermodynamic from solid, four buffer solutions from pH 1.2 to 7.5, 25 °C): ~60 mg/mL
solubility ([1]; four buffer solutions (pH 1.2, 4.5, 6.8, 7.5), 37 °C, pH 1.2, aqueous buffer, thermodynamic from solid, four buffer solutions from pH 1.2 to 7.5, 37 °C, depending on the pH): 130 to 150 mg/mL
solubility at 96 h ([1]; hydrochloric acid/sodium chloride buffer pH 1.2, 25 °C, pH 1.2, simulated gastric fluid, thermodynamic from solid, pH 1.2, 25 °C, batch 170215): 63.2 mg/mL
solubility at 96 h ([1]; hydrochloric acid/sodium chloride buffer pH 1.2, 25 °C, pH 1.2, simulated gastric fluid, thermodynamic from solid, pH 1.2, 25 °C, batch 180215): 63.5 mg/mL
solubility at 96 h ([1]; hydrochloric acid/sodium chloride buffer pH 1.2, 25 °C, pH 1.2, simulated gastric fluid, thermodynamic from solid, pH 1.2, 25 °C, batch 190315): 63.2 mg/mL
solubility at 96 h ([1]; hydrochloric acid/sodium chloride buffer pH 1.2, 25 °C, pH 1.2, simulated gastric fluid, thermodynamic from solid, pH 1.2, 25 °C, mean of three batches): 63.3 mg/mL
solubility at 48 h ([1]; pH 1.2, simulated gastric fluid, thermodynamic from solid, batch 170215): 152 mg/mL
solubility at 48 h ([1]; pH 1.2, simulated gastric fluid, thermodynamic from solid, batch 180215): 155 mg/mL
solubility at 48 h ([1]; pH 1.2, simulated gastric fluid, thermodynamic from solid, batch 190315): 155 mg/mL
solubility at 48 h ([1]; pH 1.2, simulated gastric fluid, thermodynamic from solid, mean of three batches): 154 mg/mL
solubility at 96 h ([1]; potassium phosphate buffer pH 6.8, 25 °C, pH 6.8, aqueous buffer, thermodynamic from solid, pH 6.8, 25 °C, batch 170215): 60.8 mg/mL
solubility at 96 h ([1]; potassium phosphate buffer pH 6.8, 25 °C, pH 6.8, aqueous buffer, thermodynamic from solid, pH 6.8, 25 °C, batch 180215): 59.5 mg/mL
solubility at 96 h ([1]; potassium phosphate buffer pH 6.8, 25 °C, pH 6.8, aqueous buffer, thermodynamic from solid, pH 6.8, 25 °C, batch 190315): 60.2 mg/mL
solubility at 96 h ([1]; potassium phosphate buffer pH 6.8, 25 °C, pH 6.8, aqueous buffer, thermodynamic from solid, pH 6.8, 25 °C, mean of three batches): 60.2 mg/mL
solubility at 96 h ([1]; potassium phosphate buffer pH 6.8, 37 °C, pH 6.8, aqueous buffer, thermodynamic from solid, pH 6.8, 37 °C, batch 170215): 131 mg/mL
solubility at 96 h ([1]; potassium phosphate buffer pH 6.8, 37 °C, pH 6.8, aqueous buffer, thermodynamic from solid, pH 6.8, 37 °C, batch 180215): 128 mg/mL
solubility at 96 h ([1]; potassium phosphate buffer pH 6.8, 37 °C, pH 6.8, aqueous buffer, thermodynamic from solid, pH 6.8, 37 °C, batch 190315): 131 mg/mL
solubility at 96 h ([1]; potassium phosphate buffer pH 6.8, 37 °C, pH 6.8, aqueous buffer, thermodynamic from solid, pH 6.8, 37 °C, mean of three batches): 130 mg/mL
solubility at 96 h ([1]; potassium phosphate buffer pH 7.5, 25 °C, pH 7.5, aqueous buffer, thermodynamic from solid, pH 7.5, 25 °C, batch 170215): 58.9 mg/mL
solubility at 96 h ([1]; potassium phosphate buffer pH 7.5, 25 °C, pH 7.5, aqueous buffer, thermodynamic from solid, pH 7.5, 25 °C, batch 180215): 59.2 mg/mL
solubility at 96 h ([1]; potassium phosphate buffer pH 7.5, 25 °C, pH 7.5, aqueous buffer, thermodynamic from solid, pH 7.5, 25 °C, batch 190315): 59.1 mg/mL
solubility at 96 h ([1]; potassium phosphate buffer pH 7.5, 25 °C, pH 7.5, aqueous buffer, thermodynamic from solid, pH 7.5, 25 °C, mean of three batches): 59.1 mg/mL
solubility at 96 h ([1]; potassium phosphate buffer pH 7.5, 37 °C, pH 7.5, aqueous buffer, thermodynamic from solid, pH 7.5, 37 °C, batch 170215): 127 mg/mL
solubility at 96 h ([1]; potassium phosphate buffer pH 7.5, 37 °C, pH 7.5, aqueous buffer, thermodynamic from solid, pH 7.5, 37 °C, batch 180215): 130 mg/mL
solubility at 96 h ([1]; potassium phosphate buffer pH 7.5, 37 °C, pH 7.5, aqueous buffer, thermodynamic from solid, pH 7.5, 37 °C, batch 190315): 126 mg/mL
solubility at 96 h ([1]; potassium phosphate buffer pH 7.5, 37 °C, pH 7.5, aqueous buffer, thermodynamic from solid, pH 7.5, 37 °C, mean of three batches): 128 mg/mL
solubility at 96 h ([1]; sodium acetate/acetic acid buffer pH 4.5, 25 °C, pH 4.5, aqueous buffer, thermodynamic from solid, pH 4.5, 25 °C, batch 170215): 59.7 mg/mL
solubility at 96 h ([1]; sodium acetate/acetic acid buffer pH 4.5, 25 °C, pH 4.5, aqueous buffer, thermodynamic from solid, pH 4.5, 25 °C, batch 180215): 59.3 mg/mL
solubility at 96 h ([1]; sodium acetate/acetic acid buffer pH 4.5, 25 °C, pH 4.5, aqueous buffer, thermodynamic from solid, pH 4.5, 25 °C, batch 190315): 60.9 mg/mL
solubility at 96 h ([1]; sodium acetate/acetic acid buffer pH 4.5, 25 °C, pH 4.5, aqueous buffer, thermodynamic from solid, pH 4.5, 25 °C, mean of three batches): 60 mg/mL
solubility at 96 h ([1]; sodium acetate/acetic acid buffer pH 4.5, 37 °C, pH 4.5, aqueous buffer, thermodynamic from solid, pH 4.5, 37 °C, batch 170215): 132 mg/mL
solubility at 96 h ([1]; sodium acetate/acetic acid buffer pH 4.5, 37 °C, pH 4.5, aqueous buffer, thermodynamic from solid, pH 4.5, 37 °C, batch 180215): 133 mg/mL
solubility at 96 h ([1]; sodium acetate/acetic acid buffer pH 4.5, 37 °C, pH 4.5, aqueous buffer, thermodynamic from solid, pH 4.5, 37 °C, batch 190315): 136 mg/mL
solubility at 96 h ([1]; sodium acetate/acetic acid buffer pH 4.5, 37 °C, pH 4.5, aqueous buffer, thermodynamic from solid, pH 4.5, 37 °C, mean of three batches): 134 mg/mL
Papp A→B at 120 min [2]: 0.2 to 0.3 ×10⁻⁶ cm/s
Evidence for active transport [3]: no evidence for active transport
Permeability classification [3]: low in vitro permeability
TEER relative to TEER measured in medium without test substance [4]: about 100%
P-gp-mediated transport of the substance ([5]; bi-directional transport 10 μM with/without cyclosporin A 12 μmol·L^−1): not indicative for a P-gp-mediated transport
Fold lower permeation coefficient in ab direction with cyclosporin A compared to without CsA ([5]; human, Caco-2, 120 min, 10 μM, pH 7.4): more than 3 times
